Experiments:
Format in all cases: in vivo
[1] = system: C2186R edited Oryza sativa plants; assay: Herbicide spray tolerance of C2186R edited plants; conditions: for tolerance compared with wild-type control: 5 g.a.i./mu, 14 d later, FIG. 6
Protocol: (§1) Multiple Oryza sativa varieties such as Wanzhijing 006, Nanjing 9108, and Jiahe 218 were used as experimental materials. The base editor constructed above was transformed into the Oryza sativa plants by A. tumefaciens to obtain gene-edited plants. Emerging seedlings were screened with a sethoxydim-containing medium at a concentration of SET-2: 2 mg/L. Or, edited seedlings were planted in a cultivation room. The edited seedlings and the control plants were sprayed with sethoxydim at a concentration of 0.5 g/L (corresponding to a field application dosage of 10 g. a.i/mu), and a survival rate of the seedlings was counted 10 d later.
(§2) Through screening cultivation, herbicide-resistant plants were screened out on a sethoxydim-containing medium. […] In addition, herbicide-resistant plants were also screened out in the cultivation room.
(§3) The I1879V and C2186R edited Oryza sativa plants obtained in Example 1 were planted, and the resistance to other types of herbicides was tested, such as phenthodim, quizalofop-p, fenoxaprop-p-ethyl, clethodim, haloxyfop-p-methyl, fenoxaprop, and butyclofen.
(§4) Dibble Oryza sativa plants at the seedling stage in the field were selected and sprayed with phenthodim at 20 g.a.i./mu (4 times a recommended dosage), and then results were observed.
(§5) Quizalofop-p and fenoxaprop-p-ethyl were each applied at 5 g.a.i./mu to I1879V edited plants and C2186R edited plants, and results were observed 14 d later.

[2] = system: I1879V edited Oryza sativa plants; assay: Herbicide spray tolerance of I1879V edited plants; conditions: for tolerance compared with wild-type control: 5 g.a.i./mu, FIG. 6; for phytotoxicity observed: field seedlings
Protocol: as §1
(§6) For I1879V edited Oryza sativa plants, the dosage of sethoxydim was further increased to a corresponding field application dosage of 15 g. a.i/mu. The dosage of sethoxydim was further increased to 30 g. a.i/mu.
as §3, §4, §5
The tolerance of the I1879V edited plants to clethodim, haloxyfop-p-methyl, fenoxaprop, and butyclofen was tested, where the clethodim, haloxyfop-p-methyl, and fenoxaprop were each applied at concentrations of 5 g.a.i./mu (1×) and 10 g.a.i./mu (2×); and the butyclofen was applied at concentrations of 10 g.a.i./mu (1×) and 20 g.a.i./mu (2×). After the herbicide was applied for 20 d, the growth of the edited plants was observed and the herbicide resistance of the edited plants was counted.

[3] = system: wild-type Oryza sativa plants; assay: Herbicide spray on wild-type control plants; conditions: for phytotoxicity observed: field seedlings
Protocol: as §1, §6, §4

[4] = system: I1879V edited Oryza sativa plants; assay: Screening of emerging seedlings on sethoxydim-containing medium; conditions: 2 mg/L, FIG. 2
Protocol: as §1, §2

[5] = 15 g. a.i/mu, 14 d later, FIG. 4
[6] = 20 g.a.i./mu (4 times recommended dosage), 7 d after spraying
[7] = 20 g.a.i./mu, 20 d after application, FIG. 5

C[C@@H](Oc1ccc(Oc2cnc3cc(Cl)ccc3n2)cc1)C(=O)O [Quizalofop-p, quizalofop-p]
tolerance compared with wild-type control [1]: failed to produce tolerance
tolerance compared with wild-type control ([2]; 14 d later): failed to produce tolerance

CCOC(=O)[C@@H](C)Oc1ccc(Oc2nc3ccc(Cl)cc3o2)cc1 [fenoxaprop-p-ethyl]
tolerance compared with wild-type control [1]: failed to produce tolerance
tolerance compared with wild-type control ([2]; 14 d later): failed to produce tolerance

CCC/C(=N\OCC)C1=C(O)CC(CC(C)SCC)CC1=O (stereo not drawn) [sethoxydim]
state of control plants after herbicide [3, 5]: obviously yellow and dead
survival of wild-type plants after herbicide ([3]; 30 g. a.i/mu, 20 d): all wild-type plants died
herbicide tolerance of edited seedlings on herbicide-containing medium [4]: able to tolerate the herbicide
herbicide tolerance of edited seedlings after spraying ([1]; sprayed at 0.5 g/L (field application dosage 10 g. a.i/mu), 10 d, FIG. 3): able to tolerate the herbicide
growth of edited material after herbicide [2, 5]: grew normally
phytotoxicity ([2]; 30 g. a.i/mu, 20 d): about 30%

phenthodim
phytotoxicity observed [3, 6]: obvious chlorosis and spots
phytotoxicity observed [3, 7]: serious phytotoxicity
phytotoxicity observed ([1]; 20 g.a.i./mu, field seedlings): obvious phytotoxicity
phytotoxicity observed [2, 6]: no visible phytotoxicity
phytotoxicity observed [2, 7]: no obvious phytotoxicity
